According to BigSolDB 2.1:

CC(C)(N)C(=O)O
solubility (mole fraction)
Settings	283.15 K	288.15 K	293.15 K	298.15 K	303.15 K	308.15 K	313.15 K	318.15 K	323.15 K
in 2-butanone	0.000215	0.000258	0.000319	0.000415	0.000507	0.000599	0.00068	0.000803	0.000946
in DMF	5.8e-05	0.00019	0.000365	0.00067	0.00102	0.00163	0.00245	0.00356	0.00462
in acetone	6e-05	9.7e-05	0.00016	0.000211	0.000253	0.000319	0.000386	0.000442	0.000501
in acetonitrile	0.000123	0.00014	0.000163	0.000189	0.000218	0.00024	0.000277	0.000317	0.000366
in ethanol	0.000102	0.000183	0.000277	0.000376	0.000479	0.000579	0.000669	0.000763	0.000879
in ethyl acetate	0.000164	0.000246	0.000353	0.000507	0.000635	0.000808	0.000949	0.00111	0.00137
in isopropanol	0.000157	0.000176	0.000198	0.000227	0.000275	0.000336	0.000396	0.000466	0.000576
in methanol	0.000625	0.000658	0.000715	0.000792	0.000878	0.000947	0.00106	0.00117	0.0013
in methyl acetate	6.8e-05	0.000102	0.00013	0.000168	0.00021	0.000248	0.000306	0.000364	0.000436
in n-butanol	0.000158	0.000219	0.00027	0.000334	0.00043	0.000518	0.00065	0.000783	0.000963
in n-pentanol	0.0002	0.000248	0.000302	0.000369	0.000448	0.000523	0.000616	0.000721	0.000843
in n-propanol	0.00015	0.000207	0.000302	0.000388	0.000466	0.000553	0.000659	0.000774	0.000945
in water	0.0256	0.0259	0.0261	0.0266	0.0269	0.0273	0.0276	0.0282	0.0291
